From PMC8586358 (Nature Communications, 2021)
pEC50, pIC50, pKi: −log10 of the molar value. “And” between values parts separate entries of the source, which are not always exact repeats. Identical values can stand only once. Like-named read-outs stand apart in the source and are kept apart here.

Columns and labels:
D3R = molecular target: T1, D3R (Homo sapiens, UniProt P35462); experiment: BRET-based Gi1-activation assay in HEK 293T cells; assay type: cell-based
T1 construct: expressed in transfected cells; host or cells: HEK 293 (microscopy), HEK 293T (BRET)
T1 sequence (P35462 whole entry): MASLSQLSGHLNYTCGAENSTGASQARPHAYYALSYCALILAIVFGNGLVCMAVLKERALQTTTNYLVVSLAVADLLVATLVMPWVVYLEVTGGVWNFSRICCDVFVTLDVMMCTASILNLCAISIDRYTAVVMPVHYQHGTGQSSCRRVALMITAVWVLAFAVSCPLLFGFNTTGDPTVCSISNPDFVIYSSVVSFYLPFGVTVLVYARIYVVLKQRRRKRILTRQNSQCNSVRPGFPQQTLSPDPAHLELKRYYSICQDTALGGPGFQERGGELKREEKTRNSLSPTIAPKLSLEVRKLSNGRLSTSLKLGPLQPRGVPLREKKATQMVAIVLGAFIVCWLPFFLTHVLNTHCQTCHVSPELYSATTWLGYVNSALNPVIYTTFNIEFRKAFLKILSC
Text: The next day we replaced the medium with modified Kreb’s Ringer medium and performed BRET experiments using a Thermo Scientific Varioskan Flash multimode plate reader similarly as previously described. […] To calculate the BRET response, we first subtracted the BRET ratio of cells coexpressing the untagged β1 subunit from the BRET ratio of cells coexpressing Venus-β1. Then we corrected the baseline BRET ratio and subtracted the BRET ratio of vehicle-treated cells from the average BRET ratio of stimulus-treated cells. All BRET measurements were performed in triplicates.

D2R = molecular target: T2, D2R (Homo sapiens, UniProt P14416); experiment: Fluo-cariprazine PharmacoSTORM signal in D2R-expressing cells (Supplementary Fig. S6d); assay type: binding
T2 construct: expressed in transfected cells; host or cells: HEK 293
T2 sequence (P14416 whole entry): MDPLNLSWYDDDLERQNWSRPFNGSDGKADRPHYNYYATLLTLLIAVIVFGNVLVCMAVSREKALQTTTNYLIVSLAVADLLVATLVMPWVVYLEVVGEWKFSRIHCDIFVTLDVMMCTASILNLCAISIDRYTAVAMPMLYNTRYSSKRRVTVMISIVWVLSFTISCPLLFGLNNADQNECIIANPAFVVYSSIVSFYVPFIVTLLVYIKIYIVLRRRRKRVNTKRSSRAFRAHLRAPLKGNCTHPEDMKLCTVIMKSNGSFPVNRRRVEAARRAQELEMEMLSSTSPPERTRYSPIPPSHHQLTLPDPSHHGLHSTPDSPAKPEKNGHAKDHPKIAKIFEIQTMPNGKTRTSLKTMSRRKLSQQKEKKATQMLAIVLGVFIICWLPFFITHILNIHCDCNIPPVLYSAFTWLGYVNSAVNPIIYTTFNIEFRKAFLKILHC
Text: Generation of N-terminally EGFP-tagged mouse CB1R was previously described[8]. The coding sequence of monoacylglycerol lipase (MAGL) was amplified with mMGL_fw and mMGL_rev primers using a mouse brain cDNA library as a template. The PCR product was digested with HindIII and BamHI enzymes and cloned into pcDNA3.1 backbone. GFP-MGL was constructed by subcloning the open reading frame of MAGL into pAcGFP1-C1 vector following HindIII/BamHI digestion. […] The amplified DNA was inserted into pcDNA3.1 vector between the BamHI and XhoI restriction sites. TMEM35 in pCMV6 vector was from Origene (RC209790). The pGloSensor™-22F cAMP plasmid was from Promega. The plasmid encoding CB1R was generated by inserting the coding sequence of human CB1R into pCAGIG vector. The plasmids encoding Gi1 subunits (αi1, β1, and γ2) were from the cDNA Resource Center. We created Gαi1–Rluc8 using overlap exchange PCR, Rluc8 was inserted into Gαi1 between residue 91 and 92 with SGGGGS linkers similar to a previous design[77]. Venus–β1 was created by replacing YFP with Venus in YFP–β1 using restriction digestion, YFP–β1 plasmid construct was described previously[78].
For microscopic experiments, cells were seeded one day before transfection on poly-D-lysine-coated coverslips in 24-well culture plates. Coverslips were cleaned with extensive 2 M NaOH and 70% ethanol washing steps prior to use. Transient transfection was done with Lipofectamine 2000 (Thermo Fischer) according to the manufacturer’s protocol. After transfection (20–28 h), pharmacological treatment was applied and then combined with immunolabeling. The full procedure was optimized for each investigated protein. In the case of D3R-, CB1R-, and α7-nAchR-expressing cells, all labeling and washing steps were executed in Hanks’ balanced salt solution (Sigma-Aldrich H6648) on live cells, and in Dulbecco’s Phosphate Buffered Saline (Corning, 21-031-CV) on fixed cells. The labeling steps with antibodies, ligands, or fixatives were followed by three washing steps. […] Unless otherwise stated, we used CF568-labeled secondary antibodies.
The HA-D3R-expressing cells were live-stained with anti-HA primary and secondary antibodies for 10 min at room temperature. […] Cells were fixed in 4% PFA for 10 min before imaging. For Supplementary Fig. S5g, Cy5-labeled secondary antibody was applied, without fluorescent ligand treatment. For fluo-cannabinoid binding experiments, all steps were executed at room temperature. […] MAGL pharmacological labeling was performed in culture medium in a 5% CO2 atmosphere at 37 °C. […] Before immunolabeling, cells were washed with 100% methanol three times for 10 min and were blocked with 5% normal donkey serum (NDS) in 0.1 M phosphate buffer (PB; pH 7.4), for 30 min. Anti-GFP immunolabeling was done in 0.1 M PB and immunostained cells were postfixed with 4% PFA before imaging. In the case of α7-nAChR experiments, its chaperon protein, NACHO (TMEM35) was co-transfected in a 10 to 1 receptor:chaperon ratio in order to enhance cell-surface expression of the ion channel[79]. MLA pretreatment and Alexa647-bungarotoxin labeling were done at 4 °C for 20 min. After pharmacological labeling, the cells were fixed with 4% PFA, and subsequent anti-HA-immunolabeling was done at room temperature. Immunolabeling was followed by post-fixation.
To analyze the number of localization points (LPs) in membranes of cultured cells, we merged the dSTORM images obtained from pharmacolabeling (PharmacoSTORM) and immunolabeling (ImmunoSTORM). […]

MAGL = molecular target: T3, MAGL (Homo sapiens, UniProt Q99685); experiment: 2-Arachidonoylglycerol-based fluorescence assay for DH-463; assay type: biochemical
T3 sequence (Q99685 1-303): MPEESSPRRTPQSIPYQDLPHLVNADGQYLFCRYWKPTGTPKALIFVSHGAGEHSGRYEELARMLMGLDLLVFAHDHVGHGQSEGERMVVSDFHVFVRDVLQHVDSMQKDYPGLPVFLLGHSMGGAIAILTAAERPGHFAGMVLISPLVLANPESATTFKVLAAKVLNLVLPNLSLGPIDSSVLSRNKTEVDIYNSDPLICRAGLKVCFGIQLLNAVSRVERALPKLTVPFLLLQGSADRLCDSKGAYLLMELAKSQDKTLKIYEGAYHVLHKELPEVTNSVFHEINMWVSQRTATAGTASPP
Protocol: The natural substrate assays were performed as reported previously[80],[81]. All chemicals and reagents were purchased from Sigma-Aldrich, unless mentioned otherwise. […] 2-Arachidonoylglycerol was from Cayman Chemical. All measurements were performed in n = 4 or n = 8 for controls, with Z’ ≥ 0.6.

CB1R [1] = molecular target: T4, CB1R (Homo sapiens, UniProt P21554); experiment: Ligand-binding assay, affinity of fluo-cannabinoid for CB1R (Supplementary Table S1)
T4 sequence (P21554 whole entry): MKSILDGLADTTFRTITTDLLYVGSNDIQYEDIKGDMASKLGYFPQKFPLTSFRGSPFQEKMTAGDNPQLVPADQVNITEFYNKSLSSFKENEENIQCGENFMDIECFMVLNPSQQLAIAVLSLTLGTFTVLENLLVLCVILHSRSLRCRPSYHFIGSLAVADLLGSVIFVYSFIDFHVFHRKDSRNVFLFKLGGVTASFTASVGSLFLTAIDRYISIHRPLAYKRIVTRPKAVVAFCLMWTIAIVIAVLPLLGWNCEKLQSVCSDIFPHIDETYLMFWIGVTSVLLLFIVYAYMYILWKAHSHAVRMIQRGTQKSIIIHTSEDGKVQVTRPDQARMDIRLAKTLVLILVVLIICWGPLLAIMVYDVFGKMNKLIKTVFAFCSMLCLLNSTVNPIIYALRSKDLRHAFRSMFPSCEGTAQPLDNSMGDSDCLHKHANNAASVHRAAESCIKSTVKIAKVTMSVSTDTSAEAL

CB1R [2] = molecular target: T4, CB1R; assay type: cell-based; set-up: expressed in transfected cells; host or cells: HEK 293T; conditions: for cAMP reduction (%): single experiments
α7-nAchR-HA = α7-nAchR-HA (Homo sapiens, UniProt P36544)
α7-nAchR-HA, sequence (P36544 23-502): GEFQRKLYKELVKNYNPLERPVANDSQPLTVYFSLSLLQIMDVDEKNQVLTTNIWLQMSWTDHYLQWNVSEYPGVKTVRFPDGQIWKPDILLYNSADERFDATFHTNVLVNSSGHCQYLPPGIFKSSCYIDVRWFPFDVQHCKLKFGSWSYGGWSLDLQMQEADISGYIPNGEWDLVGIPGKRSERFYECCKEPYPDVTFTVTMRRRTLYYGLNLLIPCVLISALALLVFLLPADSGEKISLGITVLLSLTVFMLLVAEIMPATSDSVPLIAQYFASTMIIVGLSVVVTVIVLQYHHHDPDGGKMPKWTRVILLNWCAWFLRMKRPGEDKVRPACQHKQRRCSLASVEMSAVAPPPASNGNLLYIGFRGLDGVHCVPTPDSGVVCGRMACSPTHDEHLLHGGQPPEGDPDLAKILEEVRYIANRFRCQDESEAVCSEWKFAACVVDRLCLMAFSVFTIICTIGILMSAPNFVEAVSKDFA

[3] = molecular target: T5, D3R in the Islands of Calleja (Mus musculus, UniProt P30728); experiment: In vivo competitive drug-binding measurement (cariprazine i.p., then Fluo-CAR labeling of acute slices); conditions: cariprazine 1 mg/kg i.p., 2 h
T5 construct: from tissue; host or cells: mouse brain (Islands of Calleja, ventral and dorsal striatum); acute slices or fresh-frozen cryosections
T5 sequence (P30728 whole entry): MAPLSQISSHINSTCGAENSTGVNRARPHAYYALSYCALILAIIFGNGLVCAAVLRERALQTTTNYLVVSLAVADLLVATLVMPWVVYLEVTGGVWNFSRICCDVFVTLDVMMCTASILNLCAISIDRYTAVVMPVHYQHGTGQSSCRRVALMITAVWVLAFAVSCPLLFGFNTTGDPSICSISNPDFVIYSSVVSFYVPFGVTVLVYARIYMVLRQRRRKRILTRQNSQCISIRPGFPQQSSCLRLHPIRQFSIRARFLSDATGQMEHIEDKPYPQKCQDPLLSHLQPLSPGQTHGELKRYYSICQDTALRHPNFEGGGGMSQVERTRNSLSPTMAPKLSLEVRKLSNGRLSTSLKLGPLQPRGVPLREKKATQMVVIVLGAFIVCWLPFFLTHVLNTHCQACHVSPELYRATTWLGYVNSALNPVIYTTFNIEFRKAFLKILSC
Protocol: Male 26–33-days-old C57BL/6 mice were intraperitoneally injected with 1 mg/kg cariprazine or an equal volume of vehicle (0.9% saline + 1% Tween80). After injection (2 h), pharmacological tissue labeling was carried out similarly to the previous experiments. […] Slices were rinsed three times with ACSF and fixed overnight with 4% PFA. Slices were either processed for correlated confocal and STORM imaging or for conventional confocal imaging.

[4] = log(agonist) vs. response, variable slope

CCCN1CCO[C@@H]2c3cc(O)ccc3OC[C@H]21 [PD128907]
Gi1-BRET response (%, norm. to pretreatment) (D3R; PD 128907 10-6.5 M, vehicle pretreatment): 106.065% and 96.3019% and 97.7639% | Gi1-BRET response (%, norm. to pretreatment) (D3R; PD 128907 10-7.5 M, vehicle pretreatment): 94.4647% and 90.0327% and 83.0176% | Gi1-BRET response (%, norm. to pretreatment) (D3R; PD 128907 10-8.5 M, vehicle pretreatment): 62.6732% and 52.2099% and 77.0199% | Gi1-BRET response (%, norm. to pretreatment) (D3R; PD 128907 10-9.5 M, vehicle pretreatment): 23.5448% and 22.9857% and 15.0109% | Gi1-BRET response (%, norm. to pretreatment) (D3R; PD 128907 10^-6 M, vehicle pretreatment): 100% | Gi1-BRET response (%, norm. to pretreatment) (D3R; PD 128907 10^-7 M, vehicle pretreatment): 92.6877% and 91.1582% and 95.9579% | Gi1-BRET response (%, norm. to pretreatment) (D3R; PD 128907 10^-8 M, vehicle pretreatment): 89.6043% and 74.7508% and 92.6073% | Gi1-BRET response (%, norm. to pretreatment) (D3R; PD 128907 10^-9 M, vehicle pretreatment): 56.1354% and 47.8674% and 57.7701% | TOP (best-fit), Gi1-BRET response (D3R; PD 128907, vehicle pretreatment): 95,84% | LOGEC50 (best-fit) (D3R; PD 128907, vehicle pretreatment, concentration in M): -8,980 | pEC50 (D3R; vehicle pretreatment, n = 3, read-out: EC50 of PD128907): 8.98

CN(CCCNC(=O)CCCCC[N+]1=C(/C=C/C=C/C=C2/N(C)c3ccc(S(=O)(=O)O)cc3C2(C)C)C(C)(C)c2cc(S(=O)(=O)[O-])ccc21)C(=O)N[C@H]1CC[C@@H](CCN2CCN(c3cccc(Cl)c3Cl)CC2)CC1 [fluo-cariprazine]
PharmacoSTORM LPs / ImmunoSTORM LPs (% of D3R), actual mean (D2R): 7,203% | PharmacoSTORM LPs / ImmunoSTORM LPs (% of D3R) (D2R; single experiments): 3.466% and 8.432% and 4.243% and 12.6707%

CN1/C(=C/C=C/C=C/C2=[N+](CCCCCC(=O)NCc3cn(CCOc4ccc(C(c5ccc(Cl)cc5)N5CCN(C(=O)OC(C(F)(F)F)C(F)(F)F)CC5)cc4)nn3)c3ccccc3C2(C)C)C(C)(C)c2ccccc21.[Cl-] (centres unmarked) [DH-463]
HILLSLOPE (best-fit) (MAGL): -0,7836 | MAGL activity (%), mean (MAGL; 10^-5 M): 5.023% | MAGL activity (%), mean (MAGL; 10^-6 M): 10.8061% | MAGL activity (%), mean (MAGL; 10^-7 M): 27.8239% | MAGL activity (%), mean (MAGL; 10^-8 M): 51.3279% | MAGL activity (%), mean (MAGL; 10^-9 M): 91.5194% | MAGL activity (%), mean (MAGL; 10^-10 M): 105.132% | LOGIC50 (best-fit) (MAGL; concentration in M): -7,938 | BOTTOM (best-fit), MAGL activity (MAGL; log(inhibitor) vs. response, variable slope): 7,823% | pIC50 (MAGL; read-out: IC50 (best-fit)): 7.94

CCCCCCC(C)(C)c1cc(O)c2c(c1)OC(C)(C)c1ccc(CNCCCCCCNC(=O)CCCCC[N+]3=C(/C=C/C=C/C=C4/N(C)c5ccc(S(=O)(=O)O)cc5C4(C)C)C(C)(C)c4cc(S(=O)(=O)[O-])ccc43)cc1-2 [fluo-cannabinoid]
pKi (CB1R [1]): 8.46 | HILLSLOPE (best-fit) (CB1R [2]): 0,9981 | Span (best-fit), cAMP reduction (CB1R [2]): 37,53% | cAMP reduction (%) (CB1R [2]; 10-6.5 M): 31.4472% and 32.8666% and 33.3129% and 25.9155% and 23.0595% | cAMP reduction (%) (CB1R [2]; 10-8.5 M): -1.6297% and 1.0916% and -1.1492% and -4.3119% and 0.7084% | cAMP reduction (%) (CB1R [2]; 10^-6 M): 35.6911% and 25.5164% and 35.8634% and 19.8904% and 28.6228% | cAMP reduction (%) (CB1R [2]; 10^-9 M): 0% | LOGEC50 (best-fit) (CB1R [2]; concentration in M): -7,482 | Emax (CB1R [2]; in vitro cAMP assay on CB1R): 36.1% | BOTTOM (best-fit), cAMP reduction (CB1R [2]; [4]): -1,444% | TOP (best-fit), cAMP reduction (CB1R [2]; [4]): 36,09% | pEC50 (CB1R [2]; read-out: EC50 (best-fit)): 7.48

CCN1C[C@]2(COC(=O)c3ccccc3N3C(=O)C[C@H](C)C3=O)CC[C@H](OC)[C@@]34[C@@H]5C[C@H]6[C@H](OC)[C@@H]5[C@](O)(C[C@@H]6OC)[C@@](O)([C@@H](OC)[C@H]23)[C@@H]14 [methyllycaconitine]
effect on PharmacoSTORM signal of Alexa647-α-bungarotoxin (α7-nAchR-HA): fully prevented

CN(C)C(=O)N[C@H]1CC[C@H](CCN2CCN(c3cccc(Cl)c3Cl)CC2)CC1 [cariprazine]
effect on fluo-cariprazine signal in the hilar subregion of the Islands of Calleja [3]: completely eliminated | Fluo-CAR STORM density (LPs/μm2) ([3]; slices with 30 nM Fluo-CAR, Islands of Calleja, per animal): 0.8583 LPs/μm2 and 0.5531 LPs/μm2 and 1.2207 LPs/μm2 and 0.9766 LPs/μm2
